# Columns and labels:
# [1] = system: human epidermal keratinocytes; assay: CE formation-promoting effect in cultured epidermal keratinocytes (involucrin immunostaining and Nile Red staining of CE); format: cell-based; settings: 100 μM fatty acid in MEM containing 0.1% bovine serum albumin, confluent keratinocytes, cultured one week; growth medium control 15.83 ± 3.49
# Description: Further, culture was continued for one week. […] The insoluble substances thus obtained were CE.
# [2] = system: horny layer of upper arm inside (cornified envelope); assay: Involucrin-positive CE in experimental rough skin on the inside of the upper arm; format: in vivo, human; settings: SDS-induced experimental rough skin, 3 to 4 specimens, non-treated group 0.09 ± 0.04
# Description: A cellophane adhesive tape was adhered on a face (cheek) and an upper arm of an examinee having skin troubles such as rough skin and immediately peeled off. […] The insoluble substances thus obtained was CE.
# A result obtained by staining CE originating in the face of a person troubled with rough skin in the manner described above is shown in FIG. 1 (drawing substitute photograph), and shown in FIG. 2 (drawing substitute photograph) is a result obtained by staining CE originating in a horny layer obtained by experimental rough skin induced by sodium dodecylsulfate (SDS) processing or tape stripping on inside of upper arm without any skin troubles.
# Further, the proportions of the involucrin-positive CE's in the SDS treated group and the tape stripping group in the experimental rough skin described above are shown in Table 1 in comparison with that of the involucrin-positive CE in the non-processed group (each 3 to 4 specimens).
Compound,Proportion of involucrin-positive CE (%) average ± SD [1],Proportion of involucrin-positive CE (%) average ± SD [2] [%]
CCCCCCCC/C=C\CCCCCCCC(=O)O [oleic acid],0 (not detected) %,
CCCCC/C=C\C/C=C\CCCCCCCC(=O)O [linoleic acid],0 (not detected) %,
"CCCCCCCCCCCCOS(=O)(=O)[O-].[Na+] [SDS, sodium dodecylsulfate]",,6.21 ± 2.96

# — US20080138853A1, “Method for evaluating the degree of maturity of corneocytes” (priority 2000, published 2008)
